Test results: US12679877B2, “NPRA agonists, compositions, and uses thereof” (PharmaIn Corporation, priority 2017, dated 2026)
Non-standard residues stand in square brackets, D forms with d. No end group written: not given here. *: point of attachment. CH3(CH2)22CO = C24 acyl (CH3(CH2)22CO-), CCCCCCCCCCCCCCCCCCCCCCCC(=O)*; Stearoyl = CCCCCCCCCCCCCCCCCC(=O)*; Lauroyl = CCCCCCCCCCCC(=O)*

Test system: natriuretic peptide receptors (NPRA or NPRB)
Assay: 2-point blood cGMP evaluation (2 and 6 hours) after 15 mg/Kg s.c., cGMP Direct Biotrak EIA
Assay type: in vivo, CD-1 mice
Conditions: for In vivo blood cGMP minus baseline, 2 hour (potency) / In vivo blood cGMP minus baseline, 6 hour (receptor depletion): 15 mg/Kg s.c. in mice (n=3), minus baseline 30 pmol/ml (n=12); for In vivo blood cGMP minus baseline, 2 hour (potency): 2 hours after dosing; for In vivo blood cGMP minus baseline, 6 hour (receptor depletion): 6 hours after dosing
Experimental: Various derivatives of ANP were made and screened for increase in vivo potency while limiting the apparent receptor depletion effects (or perhaps can act on another cGMP enhancing receptors) by looking at the level of blood cGMP at specific time points. […] Various derivatives were made and tested in vivo to determine the level of blood cGMP at 2 hours and 6 hours after subcutaneous administration of 15 mg/Kg in mice (which was allometrically equivalent to human dose of 1.5 mg/Kg) with the goal of finding derivatives that were therapeutically useful for increasing blood cGMP.
For 2-point cGMP evaluation of various derivatives, test samples were dissolved in water (Lonza, Wakersville, MD) before being lyophilized. Prior to use, the lyophilized test sample was dissolved in saline then 15 mg/Kg was injected subcutaneously into female CD-1 mice 6-8 weeks (n=3). Blood samples were collected at 2 and 6 hours with K2EDTA blood collection tube. The collection tube was then centrifuged at 13,000 rpm for 10 minutes at 4° C. to separate plasma. The plasma was analyzed using the cGMP Direct Biotrak EIA (GE Healthcare Life Sciences, Marlborough, MA). Note that by using allometric scaling at exponent of 0.7 [dose in other species=mice dose/((mouse weight/weight of average other species)^0.7)], the 15 mg/Kg in mice is equivalent to about 7.5 mg/Kg rat dose, about 2.5 mg/Kg dog dose, and 1.5 mg/Kg human dose. For the purpose the present disclosure, the 15 mg/Kg in mice as presented in the relevant data examples, should be understood as equivalent to about 7.5 mg/Kg rat dose, which is equivalent to about 2.5 mg/Kg dog dose, which is equivalent to about 1.5 mg/Kg human dose. Because the mice cGMP response to 15 mg/Kg dose of the newly discovered derivatives (see Table 2) was quite high, it would be prudent to use daily doses that are lower than 15 mg/Kg for mice, 7.5 mg/Kg for rat, 2.5 mg/Kg for dog, and 1.5 mg/Kg for human since any higher dose may result in too much increase in cGMP that can result in too much or even dangerous drop in blood pressure unless formulated in a very slow release delivery system. In fact based on cGMP response it was more preferable to use daily doses that are lower than […], 1.5 mg/Kg for rat, 0.5 mg/Kg for dog, and 0.3 mg/Kg for human. Additionally, the level of blood cGMP is preferably between 1.5 to 3-times of the normal baseline level. The blood or plasma cGMP normal baseline level was about 20-50 pmol/ml but could vary slightly depending on the assay kit used to measure the level.

[1] = 15 mg/Kg s.c. in mice, blood cGMP

Row | Substance | In vivo blood cGMP minus baseline, 2 hour (potency) | In vivo blood cGMP minus baseline, 6 hour (receptor depletion) | activity / potency compared to ANP, in words (2 hour data in Table 2) [1] | apparent receptor depletion/internalization, in words (6 hour data in Table 2) [1]
1 | CH3(CH2)10CO-KKGGGSLRRSSCFGGRMDRIGAQSGLGCNSFRY (Lauroyl-KKGGGSLRRSSCFGGRMDRIGAQSGLGCNSFRY; not fully specified (bridges); printed as CH3(CH2)10CO-KKGGGSLRRSSCFGGRMDRIGAQSGLGCNSFRY; cysteine pairing not given here; listed as Homo Sapiens) [SEQ ID NO. 9] | 0.16362 µM | 4.78 pmol/mL | increased potency | 
2 | CH3(CH2)16CO-RRR-SLPRSSCFGGRMDRIGAQSGLGCNSFRY-NH2 (Stearoyl-RRRSLPRSSCFGGRMDRIGAQSGLGCNSFRY-NH2; not fully specified (bridges); printed as CH3(CH2)16CO-RRR-SLPRSSCFGGRMDRIGAQSGLG; cysteine pairing not given here; listed as Homo Sapiens) [SEQ ID NO. 39] | inactive | inactive | loss or diminished of activity | 
3 | GLSKGCFGLKLDRIGSMSGLGC [SEQ ID NO. 57, reference compound] | 0.09375 µM | 24.55 pmol/mL |  | 
4 | KKGGGSLRRSSCFGGRMDRIGAQSGLGCNSFRY (listed as Homo Sapiens) [SEQ ID NO. 6] | 0.0286 µM | -4.81 pmol/mL |  | 
5 | GSLRRSSCFGGRMDRIGAQSGLGCNSFRY (listed as Homo Sapiens) [SEQ ID NO. 2] | 0.04408 µM | -13.85 pmol/mL |  | 
6 | GGGSLRRSSCFGGRMDRIGAQSGLGCNSFRY (listed as Homo Sapiens) [SEQ ID NO. 4] | 0.04166 µM | -11.79 pmol/mL |  | 
7 | CH3(CH2)16COKKKGGGGLSKGCFGLKLDRIGSMSGLGC (Stearoyl-KKKGGGGLSKGCFGLKLDRIGSMSGLGC; not fully specified (bridges); printed as CH3(CH2)16COKKKGGGGLSKGCFGLKLDRIGSMSGLGC; cysteine pairing not given here; listed as Homo Sapiens) [SEQ ID NO. 68] | 0.33029 µM | 250.33 pmol/mL |  | 
8 | CH3(CH2)16CO-RRR-SLPRSSCFGGRMDRIGAQSGLGCNSFrY-NH2 (Stearoyl-RRRSLPRSSCFGGRMDRIGAQSGLGCNSF[dR]Y-NH2; not fully specified (bridges); printed as CH3(CH2)16CO-RRR-SLPRSSCFGGRMDRIGAQSGLG; cysteine pairing not given here; listed as Homo Sapiens) [SEQ ID NO. 40] | inactive | inactive | loss or diminished of activity | 
9 | CH3(CH2)16CO-KKGGGSLRRSSCFGGRMDRIGAQSGLGCNSFRY (Stearoyl-KKGGGSLRRSSCFGGRMDRIGAQSGLGCNSFRY; not fully specified (bridges); printed as CH3(CH2)16CO-KKGGGSLRRSSCFGGRMDRIGAQSGLGCNSFRY; cysteine pairing not given here; listed as Homo Sapiens) [SEQ ID NO. 10] | 0.18312 µM | 14.78 pmol/mL | increased potency | 
10 | CH3(CH2)16CO-RRR-SGRGGGCFGGRMDRIGAQSGLGCNSFRY (Stearoyl-RRRSGRGGGCFGGRMDRIGAQSGLGCNSFRY; not fully specified (bridges); printed as CH3(CH2)16CO-RRR-SGRGGGCFGGRMDRIGAQSGLG; cysteine pairing not given here; listed as Homo Sapiens) [SEQ ID NO. 37] | 0.04561 µM | 10.16 pmol/mL | limited increase in activity | 
11 | KGGGSLRRSSCFGGRMDRIGAQSGLGCNSFRY (listed as Homo Sapiens) [SEQ ID NO. 5] | 0.05996 µM | 44.34 pmol/mL |  | 
12 | KKKKGGGSLRRSSCFGGRMDRIGAQSGLGCNSFRY (listed as Homo Sapiens) [SEQ ID NO. 8] | 0.053 µM | 15.25 pmol/mL |  | 
13 | CH3(CH2)10CO-KKKGGGSLRRSSCFGGRMDRIGAQSGLGCNSFRY (Lauroyl-KKKGGGSLRRSSCFGGRMDRIGAQSGLGCNSFRY; not fully specified (bridges); printed as CH3(CH2)10CO-KKKGGGSLRRSSCFGGRMDRIGAQSGLGCNSFRY; cysteine pairing not given here; listed as Homo Sapiens) [SEQ ID NO. 11] | 0.13616 µM | 10.28 pmol/mL | increased potency | 
14 | CH3(CH2)16COKKGGGGLSKGCFGLKLDRIGSMSGLGC (Stearoyl-KKGGGGLSKGCFGLKLDRIGSMSGLGC; not fully specified (bridges); printed as CH3(CH2)16COKKGGGGLSKGCFGLKLDRIGSMSGLGC; cysteine pairing not given here; listed as Homo Sapiens) [SEQ ID NO. 86] | 0.0802 µM | 42.37 pmol/mL |  | 
15 | CH3(CH2)16CO-KKKKSLRRSSCFGGRMDRIGAQSGLGCNSFRY (Stearoyl-KKKKSLRRSSCFGGRMDRIGAQSGLGCNSFRY; not fully specified (bridges); cysteine pairing not given here; listed as Homo Sapiens) [SEQ ID NO. 35] | 0.045 µM | 12.79 pmol/mL | slightly increased in activity | no significant effect on apparent receptor internalization
16 | CH3(CH2)16COKKKKGGGGLSKGCFGLKLDRIGSMSGLGC (Stearoyl-KKKKGGGGLSKGCFGLKLDRIGSMSGLGC; not fully specified (bridges); printed as CH3(CH2)16COKKKKGGGGLSKGCFGLKLDRIGSMSG; cysteine pairing not given here; listed as Homo Sapiens) [SEQ ID NO. 72] | 0.54499 µM | 368.29 pmol/mL | increased potency | 
17 | GGGGLSKGCFGLKLDRIGSMSGLGC (listed as Homo Sapiens) [SEQ ID NO. 60] | 0.04998 µM | 16.85 pmol/mL | no loss activity compared to ANP | 
18 | CH3(CH2)22COKKKKGGGGLSKGCFGLKLDRIGSMSGLGC ({CH3(CH2)22CO}-KKKKGGGGLSKGCFGLKLDRIGSMSGLGC; not fully specified (bridges); printed as CH3(CH2)22COKKKKGGGGLSKGCFGLKLDRIGSMSGLGC; cysteine pairing not given here; listed as Homo Sapiens) [SEQ ID NO. 122] | 0.25192 µM | 209.24 pmol/mL |  | 
19 | KKKGGGSLRRSSCFGGRMDRIGAQSGLGCNSFRY (listed as Homo Sapiens) [SEQ ID NO. 7] | 0.0234 µM | -1.19 pmol/mL |  | 
20 | CH3(CH2)16CO-KKKKSLRRSSCFGGRMDRIGAQSGLGCNSFrY (Stearoyl-KKKKSLRRSSCFGGRMDRIGAQSGLGCNSF[dR]Y; not fully specified (bridges); printed as KKKKSLRRSSCFGGRMDRIGAQSGLGCNSFrY; cysteine pairing not given here; listed as Homo Sapiens) [SEQ ID NO. 36] | inactive | inactive |  | 
21 | GGSLRRSSCFGGRMDRIGAQSGLGCNSFRY (listed as Homo Sapiens) [SEQ ID NO. 3] | 0.04679 µM | 0.16 pmol/mL |  | 
